# System: HCV replicon (HCV 1b-377-neo replicon cells, Huh7)
# Assay: HCV replicon cell-based FRET assay
# Details: Hepatitis C virus, Huh-7
# Procedure, shortened: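 Huh7 cells carrying a neo-selectable genotype 1b HCV replicon (~3,000 RNA copies/cell) were seeded at 1.5×10^4 cells/well and treated 4 days at 37 °C (0.5% DMSO final). CC50 was read by alamar Blue (4 h, ex 530/em 580 nm). Lysates with 10 μM EDANS/DABCYL NS3 protease FRET peptide were read kinetically (ex 340/em 490 nm, 25 °C, ~15 min) for % inhibition.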
row,SMILES,EC50 [nM]
1,CC(=O)C(C)(C)OC(=O)NC1CCCCCC=CC2CC2(C(=O)NS(=O)(=O)C2CC2)NC(=O)C2CC(Oc3nccc4ccccc34)CN2C1=O (centres unmarked) [Compound 123],50 to 500
2,COc1ccc2c(OC3CC4C(=O)NC5(C(=O)NS(=O)(=O)C6CC6)CC5C=CCCCOCC(NC(=O)OCC(C)(C)C)C(=O)N4C3)nccc2c1 (centres unmarked) [Compound 88],< 50
3,"COc1ccc2c(O[C@@H]3C[C@H]4C(=O)N[C@]5(C(=O)NS(=O)(=O)C6CC6)C[C@H]5/C=C\COCC[C@H](NC(=O)OC(C)(C)C)C(=O)N4C3)nccc2c1 [Compound 141, [(Z)-(1S,4R,13S,17R)-4-cyclopropanesulfonylaminocarbonyl-17-(6-methoxy-isoquinolin-1-yloxy)-2,14-dioxo-10-oxa-3,15-diaza-tricyclo[13.3.0.0^4,6]octadec-7-en-13-yl]-carbamic acid tert-butyl ester]",500 to 5000
4,COc1ccc2c(OC3CC4C(=O)NC5(C(=O)NS(=O)(=O)C6CC6)CC5C=CCOCCCC(NC(=O)OC(C)C)C(=O)N4C3)nc(-c3ccccc3)cc2c1 (centres unmarked) [Compound 98],< 50
5,COc1ccc2c(OC3CC4C(=O)NC5(C(=O)NS(=O)(=O)C6CC6)CC5C=CCCCOCC(NC(=O)N5CCCC5)C(=O)N4C3)nc(-c3ccccc3)cc2c1 (centres unmarked) [Compound 93],< 50
6,COc1ccc2c(OC3CC4C(=O)NC5(C(=O)NS(=O)(=O)C6CC6)CC5C=CCCCOCC(NC(=O)OC(C)C)C(=O)N4C3)nccc2c1 (centres unmarked) [Compound 89],< 50
7,CC(=O)N1CCC/C=C\[C@@H]2C[C@@]2(C(=O)NS(=O)(=O)C2CC2)NC(=O)[C@@H]2C[C@@H](Oc3nccc4ccccc34)CN2C(=O)[C@@H](NC(=O)OC(C)(C)C)C1 [Compound 146],500 to 5000
8,COc1ccc2c(OC3CC4C(=O)NC5(C(=O)NS(=O)(=O)C6CC6)CC5C=CCCCCCC(NC(=O)OC(C)(C)C)C(=O)N4C3)nccc2c1F (centres unmarked) [Compound 132],< 50
9,CC(C)(C)NC(=O)N1CCC/C=C\[C@@H]2C[C@@]2(C(=O)NS(=O)(=O)C2CC2)NC(=O)[C@@H]2C[C@@H](Oc3nccc4ccccc34)CN2C(=O)[C@@H](NC(=O)OC(C)(C)C)C1 [Compound 150],50 to 500
10,COc1ccc2c(OC3CC4C(=O)NC5(C(=O)NS(=O)(=O)C6CC6)CC5C=CCCCCCC(NC(=O)NC5CCCC5)C(=O)N4C3)nccc2c1 (centres unmarked) [Compound 136],< 50
11,COc1ccc2c(OC3CC4C(=O)NC5(C(=O)NS(=O)(=O)C6CC6)CC5C=CCOCCCC(NC(=O)OCC(C)(C)C)C(=O)N4C3)nc(-c3ccccc3)cc2c1 (centres unmarked) [Compound 103],< 50
